Values after ≈ are worked out from the molar mass of the structure shown. Like-named read-outs stand apart in the source and are kept apart here.
Legend:
[1] = High throughput Caco-2 permeability; format: in vitro ADME; conditions: human, 10 μmol/l, 2 h, 37° C.
Procedure: (§1) High throughput Caco-2 permeability was performed in the TranswellR 0.4 μm polycarbonate membrane 96-well system with modified methods. Caco-2 cells were maintained at 37° C. in a humidified incubator with an atmosphere of 5% CO2. The cells were cultured in 75 cm^2 flasks with Dulbecco's Modified Eagle's Medium (DMEM) containing 10% (v/v) FBS, 1% (v/v) non-essential amino acids (NEAA), 100 units/ml of penicillin, and 100 μg/ml of streptomycin. The Caco-2 cells were seeded onto inserts at a density of 2×10^4 cells/insert separately. The medium in the wells was exchanged each other day, and the trans epithelial electrical resistance (TEER) value was measured using an epithelial voltohm meter (Millipore, Billerica, Massachusetts). […] For transport experiments, each cultured monolayer on the 96-well plate was washed twice with a transport buffer (HBSS containing 25 mM HEPES, pH 7.4). The permeability assay was initiated by the addition of each compound solution (10 μmol/l) into inserts (apical side, A) or receivers (basolateral side, B). The Caco-2 cell monolayers were incubated for 2 h at 37° C. Fractions were collected from receivers (if apical to basal permeability) or inserts (if basal to apical permeability), and concentrations were assessed by UPLC/MS (Waters; Milford, MA). All compounds were tested in triplicates. The A→B (or B→A) apparent permeability coefficients (Papp) of each compound were calculated using the equation, Papp=dQ/dt×1/AC0, where dQ/dt equals the flux of a drug across the monolayer, A equals the total insert well surface area, and C0 is the initial concentration of substrate in the donor compartment. The efflux ratio was determined by dividing the Papp in the B-A direction by the Papp in the A-B direction.

[2] = target: interaction between GST-MAGEA11 MHD and FAM-PCF11_4 peptide (MAGE-A11:PCF11) (Homo sapiens (Human), UniProt P43364); assay: TR-FRET dose response competition assay for disruption of MAGE-A11:PCF11 binding
In short: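 Competition TR-FRET at room temperature in 50 mM Tris pH 7.5, 20 mM MgCl2, 0.1 mg/ml BSA, 1 mM DTT: final 5 nM GST-MAGEA11 MHD, 5 nM Tb-anti-GST, 200 nM FAM-PCF11_4, 90 min. Ratio 520/490 nm converted to % inhibition; IC50 from sigmoidal fit.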

[3] = Solubility assay (μSOL Evolution, UV); format: physicochemical; conditions: 18 h at RT in buffer; for solubility at 18 h: aqueous buffer, kinetic from dmso stock
Procedure: Solubility assays were carried out on a Biomek FX lab automation workstation (Beckman Coulter, Inc., Fullerton, CA) using SOL Evolution software (pION Inc., Woburn, MA). The detailed method is described as follows. 10 μl of 10 mM compound stock (in DMSO) was added to 190 μl 1-propanol to make a reference stock plate. 5 μl from this reference stock plate were mixed with 70 μl 1-propanol and 75 μl citrate phosphate-buffered saline (PBS; isotonic) to make the reference plate, and the UV spectrum (250-500 nm) of the reference plate was read. 6 μl of 10 mM test compound stock was added to 594 μl buffer in a 96-well storage plate and mixed. The storage plate was sealed and incubated at RT for 18 h. The suspension was then filtered through a 96-well filter plate (pION Inc., Woburn, MA). 75 μl of filtrate was mixed with 75 μl 1-propanol to make the sample plate, and the UV spectrum of the sample plate was read. Calculations were carried out with μSOL Evolution software based on the area under the curve (AUC) of the UV spectrum of the sample and reference plates. All compounds were tested in triplicate.

Caco-2 cell monolayers = assay: High throughput Caco-2 permeability; format: in vitro ADME
Procedure: as §1

MAGE-A11:PCF11 = MAGE-A11:PCF11 (Homo sapiens (Human), UniProt P43364); assay: TR-FRET single point screening at 15 μM; format: binding; design: unit not given here; conditions: single point TR-FRET screening at 15 μM against MAGE-A11:PCF11
In short: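 Single-point screen at 15 μM (0.25% DMSO) measuring disruption of GST-MAGEA11 (5 nM) binding to FAM-PCF11_4 peptide (200 nM) detected by Tb-anti-GST (5 nM). Buffer 50 mM Tris pH 7.5, 20 mM MgCl2, 0.1 mg/ml BSA, 1 mM DTT; 90 min at ~25 °C; 520/490 nm ratio converted to % inhibition versus controls.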

[4] = Caco-2, pH 7.4, apical to basolateral, read-out: Caco-2 permeability, A/B
[5] = Caco-2, pH 7.4, basolateral to apical, read-out: Caco-2 permeability, B/A
[6] = Table 6, 4-aminoquinoline compounds, read-out: TR-FRET, IC50
[7] = Table 8, representative compounds, read-out: TR-FRET IC50
[8] = read-out: IC50 by TR-FRET for disrupting MAGE-A11:PCF11 interaction
[9] = Dose response TR-FRET screening of nine scaffold groups against MAGE-A11:PCF11, read-out: consensus IC50

Sequence of interaction between GST-MAGEA11 MHD and FAM-PCF11_4 peptide (MAGE-A11:PCF11) (P43364 218-429): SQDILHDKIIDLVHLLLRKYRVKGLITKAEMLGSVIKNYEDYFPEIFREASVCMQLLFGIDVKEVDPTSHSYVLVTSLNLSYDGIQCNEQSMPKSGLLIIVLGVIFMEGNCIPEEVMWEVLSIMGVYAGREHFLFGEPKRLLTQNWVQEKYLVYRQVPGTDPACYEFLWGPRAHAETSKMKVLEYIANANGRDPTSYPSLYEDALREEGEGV
Sequence of MAGE-A11:PCF11 (P43364 218-429): as above

Structure (SMILES)	Papp at 2 h, 10 μmol/l [1, 4] [×10⁻⁶ cm/s]	Papp at 2 h, 10 μmol/l [1, 5] [×10⁻⁶ cm/s]	IC50 [2, 6] [µM]	IC50 [2, 9] [µM]	also measured
FC(F)(F)c1ccc2c(NCCCNCc3ccc4c(c3)OCO4)ccnc2c1 [SJ000361106-02, N^1-(Benzo[d][1,3]dioxol-5-ylmethyl)-N^3-(7-(trifluoromethyl)quinolin-4-yl)propane-1,3-diamine]	47	40	> 74	–	IC50 [2, 7]: 69.9 µM; solubility at 18 h [3]: 129 µM (≈ 51.9 µg/mL)
C=CC(=O)N(CCCNc1ccnc2ccccc12)Cc1ccc2[nH]ccc2c1 [SJ001009807-01, N-((1H-Indol-5-yl)methyl)-N-(3-(quinolin-4-ylamino)propyl)acrylamide]	2.73	18.9	3.5	–	solubility at 18 h [3]: 34.8 µM (≈ 13.4 µg/mL)
Clc1ccc2c(NCCCNCc3ccc4[nH]ccc4c3)ccnc2c1 [SJ000520909-03, N^1-((1H-Indol-5-yl)methyl)-N^3-(7-chloroquinolin-4-yl)propane-1,3-diamine]	19.6	21.3	0.24	–	IC50 [2, 7]: 67.1 µM; solubility at 18 h [3]: 59.8 µM (≈ 21.8 µg/mL)
Cn1ccc2cc(CNCCCNc3ccnc4cc(C(F)(F)F)ccc34)ccc21 [SJ001008067-01, N^1-((1-Methyl-1H-indol-5-yl)methyl)-N^3-(7-(trifluoromethyl)quinolin-4-yl)propane-1,3-diamine]	21.4	12.3	1.16	–	solubility at 18 h [3]: 19.4 µM (≈ 8 µg/mL)
Brc1ccc2c(NCCCNCc3ccc4[nH]ccc4c3)ccnc2c1 [SJ001008065-01, N^1-((1H-Indol-5-yl)methyl)-N^3-(7-bromoquinolin-4-yl)propane-1,3-diamine]	18.3	19.3	0.62	–	solubility at 18 h [3]: 57.1 µM (≈ 23.4 µg/mL)
CC(C)(C)c1ccc(-c2ccc3c(NCCCNCc4ccco4)ccnc3c2)cc1 [SJ000311286-01]	0.578	0.12	–	–	IC50 [2, 8]: 1.16 µM; Solubility [3]: 56.16 µM (≈ 23.2 µg/mL)
c1ccc2c(NCCCNCc3ccc4[nH]ccc4c3)ccnc2c1 [SJ001008066-01, N^1-((1H-Indol-5-yl)methyl)-N^3-(quinolin-4-yl)propane-1,3-diamine]	8.17	8.09	–	–	cell permeability (Caco-2 cell monolayers): cell permeable; IC50 [2, 8]: 0.13 µM; Solubility [3]: 37.77 µM (≈ 12.5 µg/mL)
CC(C)(C)c1ccc(-c2ccc3c(NCCCNCc4ccc5[nH]ccc5c4)ccnc3c2)cc1 [SJ001008068-01, N^1-((1H-Indol-5-yl)methyl)-N^3-(7-(4-(tert-butyl)phenyl)quinolin-4-yl)propane-1,3-diamine]	0.368	1.54	0.13	–	solubility at 18 h [3]: 0.67 µM (≈ 0.31 µg/mL)
FC(F)(F)c1cc(-c2ccc3c(NCCCNCc4ccco4)ccnc3c2)cc(C(F)(F)F)c1 [SJ000311270-01]	0.326	0.079	0.58	–	Solubility [3]: 61.08 µM (≈ 30.1 µg/mL)
FC(F)(F)c1cc(-c2ccc3c(NCCCNCc4ccc5[nH]ccc5c4)ccnc3c2)cc(C(F)(F)F)c1 [SJ001008069-01, N^1_((1H-Indol-5-yl)methyl)-N^3-(7-(3,5-bis(trifluoromethyl)phenyl)quinolin-4-yl)propane-1,3-diamine]	0.498	0.229	0.2	–	solubility at 18 h [3]: 0.12 µM (≈ 0.0651 µg/mL)
FC(F)(F)c1ccc2c(NCCCNCc3ccco3)ccnc2c1 [SJ000361113-02, N^1-(Furan-2-ylmethyl)-N^3-(7-(trifluoromethyl)quinolin-4-yl)propane-1,3-diamine]	50.2	40.1	> 70	–	solubility at 18 h [3]: 119 µM (≈ 41.6 µg/mL)
CCCN(CCCCNc1ccnc2cc(Cl)ccc12)Cc1cc(Br)ccc1O [SJ000311196]	–	–	–	–	TR-FRET signal (MAGE-A11:PCF11): 5.724; IC50 [2, 7]: 69.9 µM
COc1cccc(-c2nc(S(=O)(=O)c3ccc(Cl)cc3)c(N3CCOCC3)o2)c1 [SJ000038124-1]	–	–	–	7.43	–
CCCCn1c(=O)[nH]c(=O)c2c1nc(-c1ccc(OC)c(Br)c1)n2CC(C)C [SJ000378943-1]	–	–	–	69.9	–
Fc1ccc(Oc2ccc3c(NCCCNCc4cccc5c4OCO5)ccnc3c2)cc1 [SJ000311224-1]	–	–	–	59.6	–
Nc1nc(Nc2ccc(O)cc2)nc2ccccc12 [SJ000045622-1]	–	–	–	69.9	–
CCC(CC)c1ccc2c(NCCCNCc3cccc4c3OCO4)ccnc2c1 [SJ000311268]	–	–	–	–	IC50 [2, 7]: 28.9 µM
CCCN1C(=O)c2ccccc2NC1c1cc(OC)c(OC)c(OC)c1 (stereo not shown) [SJ000551165-1]	–	–	–	69.9	–
CC1CN(c2oc(-c3ccccc3F)nc2S(=O)(=O)c2ccc(F)cc2)CC(C)O1 (stereo not shown) [SJ000329067-1]	–	–	–	27.3	–
Clc1cccc(Cl)c1Cc1ccc2c(NCCCNCc3cccc4c3OCO4)ccnc2c1 [SJ000311316]	–	–	–	–	IC50 [2, 7]: 11 µM
O=C1c2ccccc2NC(c2ccc(F)cc2)N1Cc1ccccc1 (stereo not shown) [SJ000026596-1]	–	–	–	69.9	–
Clc1ccc2c(NCCCCN(Cc3ccccc3)CC3CCCCC3)ccnc2c1 [SJ000361194-2]	–	–	–	–	IC50 ([2]; Table 5, dose response TR-FRET screening of 59 quinoline compounds against MAGE-A11:PCF11, read-out: TR-FRET IC50): > 70 µM
Clc1cccc(Cl)c1Cc1ccc2c(NCCCNCc3cccc4c3OCO4)ccnc2c1 [SJ000311316-1]	–	–	–	11	–
CCCn1c(=O)[nH]c(=O)c2c1nc(-c1ccc(NC(C)=O)cc1)n2CCN1CCOCC1 [SJ000406218-1]	–	–	–	69.9	–
CCCn1c(=O)[nH]c(=O)c2c1nc(-c1ccc(OC)c(C)c1)n2CCOC [SJ000425187-1]	–	–	–	69.9	–
FC(F)(F)Oc1cccc(CNCCCNc2ccnc3cc(C(F)(F)F)ccc23)c1 [SJ000521045-2]	–	–	–	69.9	–
COc1ccc(Br)cc1-c1nc2c(c(=O)[nH]c(=O)n2Cc2ccccc2)n1C [SJ000382136-1]	–	–	–	69.9	–

Reference: patent US20240246941A1, “SUBSTITUTED 4-(3-AMINOPROP-1-YL)AMINOQUINOLINE ANALOGS AS MODULATORS OF MELANOMA-ASSOCIATED ANTIGEN 11 UBIQUITIN LIGASE” (ST. JUDE CHILDREN'S RESEARCH HOSPITAL, INC., priority 2020, published 2024)
